Data taken from ChEMBL document CHEMBL5465560, “Selectivity Literature for EUbOPEN Chemogenomic Library” (2024).

Experiments:
[1] = target: T1, Mitogen-activated protein kinase kinase kinase 7 (Homo sapiens) (UniProt O43318); assay: Selectivity interaction (KinomeScan (DiscoverX)) EUB0000229b MAP3K7; details: at 10 µM
T1 sequence (whole entry): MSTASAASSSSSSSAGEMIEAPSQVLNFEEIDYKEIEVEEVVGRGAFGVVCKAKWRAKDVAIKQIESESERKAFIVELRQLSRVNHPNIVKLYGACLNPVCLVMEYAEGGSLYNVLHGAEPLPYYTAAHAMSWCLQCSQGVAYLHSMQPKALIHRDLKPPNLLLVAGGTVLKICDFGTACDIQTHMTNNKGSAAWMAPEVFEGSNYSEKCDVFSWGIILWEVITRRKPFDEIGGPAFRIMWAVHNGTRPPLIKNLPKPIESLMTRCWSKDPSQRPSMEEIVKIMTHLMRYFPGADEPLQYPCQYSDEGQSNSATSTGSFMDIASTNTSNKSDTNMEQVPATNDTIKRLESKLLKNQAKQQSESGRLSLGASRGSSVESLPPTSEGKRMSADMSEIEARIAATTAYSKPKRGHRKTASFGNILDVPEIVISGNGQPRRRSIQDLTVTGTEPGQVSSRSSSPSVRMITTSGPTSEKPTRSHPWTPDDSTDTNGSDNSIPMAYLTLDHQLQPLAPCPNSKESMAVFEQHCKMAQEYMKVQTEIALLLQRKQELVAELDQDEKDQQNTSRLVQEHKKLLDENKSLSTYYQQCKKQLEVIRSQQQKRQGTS

[2] = target: Tyrosine-protein kinase Srms (Homo sapiens) (UniProt Q9H3Y6); details: at 10 µM
[3] = target: T2, Inhibitor of nuclear factor kappa-B kinase subunit epsilon (Homo sapiens) (UniProt Q14164); assay: Selectivity interaction (Kinase panel (Invitrogen)) EUB0000639a IKBKE; details: at 200 nM
T2 sequence (whole entry): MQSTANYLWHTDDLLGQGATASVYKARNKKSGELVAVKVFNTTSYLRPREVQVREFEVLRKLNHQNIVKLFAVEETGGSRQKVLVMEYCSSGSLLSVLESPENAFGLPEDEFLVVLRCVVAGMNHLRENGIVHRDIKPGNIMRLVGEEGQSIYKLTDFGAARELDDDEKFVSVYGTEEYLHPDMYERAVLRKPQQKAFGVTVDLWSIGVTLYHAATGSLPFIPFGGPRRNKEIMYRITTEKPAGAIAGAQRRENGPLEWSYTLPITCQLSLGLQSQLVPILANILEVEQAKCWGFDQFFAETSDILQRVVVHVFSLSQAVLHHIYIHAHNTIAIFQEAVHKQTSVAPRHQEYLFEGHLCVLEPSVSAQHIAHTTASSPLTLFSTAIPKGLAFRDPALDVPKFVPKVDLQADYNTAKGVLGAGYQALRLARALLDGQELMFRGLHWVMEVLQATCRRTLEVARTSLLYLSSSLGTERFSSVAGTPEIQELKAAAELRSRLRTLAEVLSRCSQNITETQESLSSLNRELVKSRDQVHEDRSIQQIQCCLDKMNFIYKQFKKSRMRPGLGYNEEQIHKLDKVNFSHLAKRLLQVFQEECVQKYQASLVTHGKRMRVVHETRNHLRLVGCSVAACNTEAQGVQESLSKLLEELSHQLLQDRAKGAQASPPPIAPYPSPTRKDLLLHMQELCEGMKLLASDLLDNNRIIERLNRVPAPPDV

[4] = target: T3, Bone morphogenetic protein receptor type-2 (Homo sapiens) (UniProt Q13873); assay: Selectivity interaction (KinomeScan (DiscoverX)) EUB0000607a BMPR2; details: at 10 µM
T3 sequence (whole entry): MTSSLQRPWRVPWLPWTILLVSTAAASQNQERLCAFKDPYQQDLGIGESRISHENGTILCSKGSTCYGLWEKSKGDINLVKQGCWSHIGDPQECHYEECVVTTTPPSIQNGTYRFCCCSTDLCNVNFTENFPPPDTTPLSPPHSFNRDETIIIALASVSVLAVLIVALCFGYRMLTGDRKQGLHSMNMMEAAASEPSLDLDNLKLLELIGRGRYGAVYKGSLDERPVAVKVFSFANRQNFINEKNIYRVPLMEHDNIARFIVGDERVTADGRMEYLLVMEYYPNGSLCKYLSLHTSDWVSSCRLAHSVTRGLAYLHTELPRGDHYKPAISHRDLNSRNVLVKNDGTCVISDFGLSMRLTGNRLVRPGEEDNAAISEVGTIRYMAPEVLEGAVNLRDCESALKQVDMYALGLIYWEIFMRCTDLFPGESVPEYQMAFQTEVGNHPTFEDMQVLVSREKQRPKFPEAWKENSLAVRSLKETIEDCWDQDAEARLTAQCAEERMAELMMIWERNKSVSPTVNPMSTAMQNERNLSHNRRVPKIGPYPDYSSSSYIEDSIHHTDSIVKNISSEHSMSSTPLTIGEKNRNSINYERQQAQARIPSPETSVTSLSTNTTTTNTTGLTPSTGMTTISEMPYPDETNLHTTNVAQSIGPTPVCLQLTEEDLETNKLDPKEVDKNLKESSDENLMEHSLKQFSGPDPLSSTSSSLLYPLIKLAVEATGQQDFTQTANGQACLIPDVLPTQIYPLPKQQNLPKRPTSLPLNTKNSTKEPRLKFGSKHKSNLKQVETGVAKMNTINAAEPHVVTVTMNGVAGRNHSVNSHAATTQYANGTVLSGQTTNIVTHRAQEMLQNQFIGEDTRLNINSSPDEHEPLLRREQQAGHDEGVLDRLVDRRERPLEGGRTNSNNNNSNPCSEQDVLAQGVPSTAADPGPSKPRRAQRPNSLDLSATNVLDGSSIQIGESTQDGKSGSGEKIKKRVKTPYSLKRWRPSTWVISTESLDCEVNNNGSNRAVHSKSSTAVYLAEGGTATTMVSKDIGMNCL

[5] = target: T4, Serine/threonine-protein kinase Nek3 (Homo sapiens) (UniProt P51956); assay: Selectivity interaction (Ambit KINOMEscan and KiNATiv profiling in Jurkat cells) EUB0000090b NEK3; assay type: cell-based; details: at 1 µM
T4 sequence (whole entry): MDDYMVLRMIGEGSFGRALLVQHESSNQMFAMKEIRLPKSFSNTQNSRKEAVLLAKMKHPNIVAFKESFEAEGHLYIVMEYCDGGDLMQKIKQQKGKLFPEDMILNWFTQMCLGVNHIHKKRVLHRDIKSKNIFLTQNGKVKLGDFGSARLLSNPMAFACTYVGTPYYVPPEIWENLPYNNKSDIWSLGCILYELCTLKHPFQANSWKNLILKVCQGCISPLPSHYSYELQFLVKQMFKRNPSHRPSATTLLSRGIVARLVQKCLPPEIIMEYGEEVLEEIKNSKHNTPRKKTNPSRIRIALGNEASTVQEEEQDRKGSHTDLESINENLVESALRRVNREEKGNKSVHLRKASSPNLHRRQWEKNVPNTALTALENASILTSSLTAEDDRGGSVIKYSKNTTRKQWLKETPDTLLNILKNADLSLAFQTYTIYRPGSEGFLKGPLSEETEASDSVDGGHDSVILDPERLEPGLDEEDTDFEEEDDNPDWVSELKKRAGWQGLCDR

Chain of Tyrosine-protein kinase Srms (Homo sapiens) (Q9H3Y6 whole entry): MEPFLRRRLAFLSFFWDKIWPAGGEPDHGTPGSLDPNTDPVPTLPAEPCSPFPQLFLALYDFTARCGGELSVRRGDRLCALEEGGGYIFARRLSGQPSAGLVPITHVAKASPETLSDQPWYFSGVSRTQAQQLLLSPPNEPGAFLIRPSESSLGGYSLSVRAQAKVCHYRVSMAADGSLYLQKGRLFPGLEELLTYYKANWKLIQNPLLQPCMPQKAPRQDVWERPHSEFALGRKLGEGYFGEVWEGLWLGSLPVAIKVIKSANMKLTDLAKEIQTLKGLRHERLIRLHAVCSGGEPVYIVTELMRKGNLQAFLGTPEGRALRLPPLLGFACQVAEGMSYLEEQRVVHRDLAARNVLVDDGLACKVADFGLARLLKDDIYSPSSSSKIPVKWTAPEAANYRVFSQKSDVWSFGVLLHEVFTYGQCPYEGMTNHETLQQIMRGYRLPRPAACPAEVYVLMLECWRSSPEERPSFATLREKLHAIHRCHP

COc1cc(N(C)c2ccnc3ccc(C(F)(F)F)cc23)cc(OC)c1OC
% binding [1]: 80%

Cc1cc([C@@H](C)Nc2ccccc2C(=O)O)c2nc(N3CCOCC3)cc(=O)n2c1 [AZD-6482]
% of control [2]: 63%

CC[C@@H]1[C@H](F)C(=O)N[C@@H]1COc1nccc2cc(C(N)=O)c(OC)cc12 [ZIMLOVISERTIB]
% of inhibition [3]: 2.32%

CNC(=O)Nc1ccc(-c2nc(N3CC4CCC(C3)O4)c3cnn(C4CCC5(CC4)OCCO5)c3n2)cc1
% of control [4]: 83%

CN(C)C/C=C/C(=O)Nc1ccc(C(=O)N2CCCC(Nc3ncc(Cl)c(-c4c[nH]c5ccccc45)n3)C2)cc1 (stereo not given)
% of control [5]: 88%
